In patent US20230270713A1, “Administration of Resiniferatoxin For Treatment of Bladder Pain or Bladder Cancer” (Sorrento Therapeutics, Inc., priority 2020, published 2023):

System: dogs with bladder transitional cell carcinoma
Assay: Change in lower urinary tract signs in dogs with bladder TCC (Example F)
Assay type: in vivo, dog
Conditions: for Improvement of at Least 1 Score, dogs n/N / Improvement of at Least 1 Score, percent of dogs / Improvement of at Least 2 Scores, dogs n/N / Improvement of at Least 2 Scores, percent of dogs / Improvement in at least 1 score (lower urinary tract signs), dogs n/N / Improvement in at least 1 score, percent of dogs / Improvement in at least 2 scores (lower urinary tract signs), dogs n/N / Improvement in at least 2 scores, percent of dogs: dogs with bladder TCC; for Improvement in at least 1 score (lower urinary tract signs), dogs n/N / Improvement in at least 1 score, percent of dogs / Improvement in at least 2 scores (lower urinary tract signs), dogs n/N / Improvement in at least 2 scores, percent of dogs: all RTX doses (25-100 μg)
Experimental: Pre-treatment with diphenhydramine HCl intramuscular (2 mg/kg) was administered 30-45 minutes prior to RTX administration. Enrolled dogs were anesthetized and were monitored by auscultation and chest movement observation. Heart rate and oxygenation were monitored using a pulse oximeter throughout the duration of anesthesia. Blood pressure was monitored. Body temperature was maintained using a heated water blanket or equivalent thermal barrier (e.g., Vetko). Lactated Ringers Solution (LRS), or other medically appropriate fluid therapy, were used to maintain adequate hydration (approximately 2 mL/kg/hr intravenous (IV)) and a fluid bolus of LRS (2-5 mL/kg IV) as needed.
RTX was administered as a one-time treatment into the bladder on Day 0 with the option of repeating RTX at a future study day. A Foley urinary catheter was placed using a sterile standard technique. An abdominal ultrasound was concurrently performed to ensure that the tip of the catheter was in the bladder lumen. Urine was removed using a catheter tipped syringe.
RTX was diluted in 0.9% NaCl and then infused into the bladder. The catheter was then flushed with 5-6 mL of 0.9% NaCl to ensure the entire IVP volume was administered. The Foley catheter was capped and remained in place for a period of 30 minutes post-infusion. The bladder was then emptied prior to removal of the Foley catheter. The timing of recovery was managed on an individual basis, but it was recommended to initiate recovery approximately 10 minutes after RTX infusion.
RTX total dose ranged from 25-100 μg (1.17-5.21 μg/kg). RTX was instilled at concentration of 1.0 μg/mL 2.0 μg/mL or 2.5 μg/mL.
Primary effectiveness variables: Evaluations of lower urinary tract signs, as reported by the owner, were used as the primary effectiveness endpoint for the study. The character of urination, frequency of urination (day), frequency of urination (night) and blood in urine (Knapp, 2010) were monitored. Blood in urine was assessed by owner through daily collection of first morning sample and the owner completed the “Owner urine collection log.” Comparisons were made for each parameter between Day 0 and subsequent study visits on Days 7 (±2), 14 (±2), 28 (±2), 56 (±2) and 84 (±2). Treatment success was defined as at least one grade improvement for each parameter.
At each study visit, the investigator graded lower urinary tract signs with input from the owner. Improvement in 1 or 2 grades are summarized by total RTX dose in Table 16 and then comparing those dogs receiving an RTX dose <3 μg/kg and 3 μg/kg in Table 17.

[1] = dogs with bladder TCC evaluable at Days 14-84

## C=C(C)[C@]12C[C@@H](C)[C@@]34O[C@](Cc5ccccc5)(O[C@@H]1[C@@H]3C=C(COC(=O)Cc1ccc(O)c(OC)c1)C[C@]1(O)C(=O)C(C)=C[C@@H]41)O2 [RTX, resiniferatoxin]
[1]
  dogs with improvement in at least 1 urinary symptom grade at each visit: more than 50%
  dogs with improvement in at least 2 grades at each visit: more than 40%
RTX <3 μg/kg, Day 7
  Improvement of at Least 1 Score, dogs n/N: 4/7
  Improvement of at Least 1 Score, percent of dogs: (57.1%)
  Improvement of at Least 2 Scores, dogs n/N: 2/7
  Improvement of at Least 2 Scores, percent of dogs: (28.6%)
RTX <3 μg/kg, Day 14
  Improvement of at Least 1 Score, dogs n/N: 5/7
  Improvement of at Least 1 Score, percent of dogs: (71.4%)
  Improvement of at Least 2 Scores, dogs n/N: 3/7
  Improvement of at Least 2 Scores, percent of dogs: (42.9%)
RTX <3 μg/kg, Day 28
  Improvement of at Least 1 Score, dogs n/N: 4/5
  Improvement of at Least 1 Score, percent of dogs: (80.0%)
  Improvement of at Least 2 Scores, dogs n/N: 3/5
  Improvement of at Least 2 Scores, percent of dogs: (60.0%)
RTX <3 μg/kg, Day 56
  Improvement of at Least 1 Score, dogs n/N: 4/5
  Improvement of at Least 1 Score, percent of dogs: (80.0%)
  Improvement of at Least 2 Scores, dogs n/N: 3/5
  Improvement of at Least 2 Scores, percent of dogs: (60.0%)
RTX <3 μg/kg, Day 84
  Improvement of at Least 1 Score, dogs n/N: 2/2
  Improvement of at Least 1 Score, percent of dogs: (100.0%)
  Improvement of at Least 2 Scores, dogs n/N: 2/2
  Improvement of at Least 2 Scores, percent of dogs: (100.0%)
RTX >= 3 μg/kg, Day 7
  Improvement of at Least 1 Score, dogs n/N: 3/7
  Improvement of at Least 1 Score, percent of dogs: (42.9%)
  Improvement of at Least 2 Scores, dogs n/N: 2/7
  Improvement of at Least 2 Scores, percent of dogs: (28.6%)
RTX >= 3 μg/kg, Day 14
  Improvement of at Least 1 Score, dogs n/N: 5/7
  Improvement of at Least 1 Score, percent of dogs: (71.4%)
  Improvement of at Least 2 Scores, dogs n/N: 3/7
  Improvement of at Least 2 Scores, percent of dogs: (42.9%)
RTX >= 3 μg/kg, Day 28
  Improvement of at Least 1 Score, dogs n/N: 4/6
  Improvement of at Least 1 Score, percent of dogs: (66.7%)
  Improvement of at Least 2 Scores, dogs n/N: 2/6
  Improvement of at Least 2 Scores, percent of dogs: (33.3%)
RTX >= 3 μg/kg, Day 56
  Improvement of at Least 1 Score, dogs n/N: 3/5
  Improvement of at Least 1 Score, percent of dogs: (60.0%)
  Improvement of at Least 2 Scores, dogs n/N: 2/5
  Improvement of at Least 2 Scores, percent of dogs: (40.0%)
RTX >= 3 μg/kg, Day 84
  Improvement of at Least 1 Score, dogs n/N: 2/5
  Improvement of at Least 1 Score, percent of dogs: 40.0%
  Improvement of at Least 2 Scores, dogs n/N: 1/5
  Improvement of at Least 2 Scores, percent of dogs: 20.0%
Day 14
  Improvement in at least 1 score (lower urinary tract signs), dogs n/N: 10/14
  Improvement in at least 1 score, percent of dogs: 71.4%
  Improvement in at least 2 scores (lower urinary tract signs), dogs n/N: 7/14
  Improvement in at least 2 scores, percent of dogs: 50.0%
Day 28
  Improvement in at least 1 score (lower urinary tract signs), dogs n/N: 8/11
  Improvement in at least 1 score, percent of dogs: 72.7%
  Improvement in at least 2 scores (lower urinary tract signs), dogs n/N: 5/11
  Improvement in at least 2 scores, percent of dogs: 45.5%
Day 56
  Improvement in at least 1 score (lower urinary tract signs), dogs n/N: 7/10
  Improvement in at least 1 score, percent of dogs: 70.0%
  Improvement in at least 2 scores (lower urinary tract signs), dogs n/N: 5/10
  Improvement in at least 2 scores, percent of dogs: 50.0%
Day 84
  Improvement in at least 1 score (lower urinary tract signs), dogs n/N: 4/7
  Improvement in at least 1 score, percent of dogs: 57.1%
  Improvement in at least 2 scores (lower urinary tract signs), dogs n/N: 3/7
  Improvement in at least 2 scores, percent of dogs: 42.9%
Of the 6 dogs with bladder TCC that received a 2nd RTX administration
  dogs showing improved urine scores after a 2nd RTX administration: 1 dog
